US10894777B2, “TG2 inhibitor piperazine compounds and uses thereof” (UNIVERSITY OF OTTAWA, priority 2016, dated 2021)

What was measured:
[1] = test system: rat primary cortical neurons; experiment: Neuronal viability by resazurin assay; assay type: cell-based; conditions: 24 h
Procedure: DMSO was used as a control. At the end of the treatment, neuronal viability was measured by resazurin assay. Results are shown as a percent of DMSO control (±SEM) (N=3).

SCC-13 cells = experiment: Spheroid formation / survival assay, SCC-13 cells (ECS cells); assay type: cell-based, human; conditions: for spheroid formation (cancer stem cell survival): 8 d spheroids, 20 μM, 48 h
Procedure: Spheroid formation assay. Cells, maintained as monolayer cultures in growth medium consisting of DMEM (Invitrogen, Frederick, Md.) supplemented with 4.5 mg/ml D-glucose, […] L-glutamine, […] sodium pyruvate, and 5% fetal calf serum, were harvested, collected by centrifugation, and resuspended in spheroid medium comprising DMEM/F12 (1:1) (DMT-10-090-CV, Mediatech Inc., Manassas, Va.) supplemented with 2% B27 serum-free supplement (17504-044, Invitrogen, Frederick, Md.), 20 ng/ml EGF (E4269, Sigma, St. Louis, Mo.), 0.4% bovine serum albumin (B4287, Sigma) and 4 μg/ml insulin (19278 Sigma, St. Louis, Mo.). The cells (40,000) were plated in 9.6 cm^2 wells in Costar six well ultra-low attachment cluster dishes (4371, Corning, Tewksbury, Mass.). Spheroid size and number was monitored with time in culture as previously described (Adhikary, G. et al., PLoS One 8:e84324, 2013).
Spheroid formation assay. Spheroid formation assays were exactly as outlined previously (Adhikary, G. et al., PLoS ONE 8:e84324, 2013), except that the spheroids were grown in six well ultra-low attachment Costar cluster dishes (4371, Corning, Tewksbury, Mass.).
Spheroid formation assay. Spheroid formation assays were as reported previously (Adhikary, G. et al., PLoS One 8:e84324, 2013), except that the spheroids were grown in 6-well ultralow attachment Costar cluster dishes (Corning).

TG2 [2] = molecular target: T1, TG2 (Homo sapiens, UniProt P21980); experiment: In situ transglutaminase assay, ionomycin-activated, GBM cell lines; assay type: cell-based; set-up: endogenous in cells; conditions: 10 μM; for ionomycin-activated in situ transamidating activity of TG2: U87 cells, 1 h pretreatment, 1 μM ionomycin 3 h
T1 sequence (P21980 1-687): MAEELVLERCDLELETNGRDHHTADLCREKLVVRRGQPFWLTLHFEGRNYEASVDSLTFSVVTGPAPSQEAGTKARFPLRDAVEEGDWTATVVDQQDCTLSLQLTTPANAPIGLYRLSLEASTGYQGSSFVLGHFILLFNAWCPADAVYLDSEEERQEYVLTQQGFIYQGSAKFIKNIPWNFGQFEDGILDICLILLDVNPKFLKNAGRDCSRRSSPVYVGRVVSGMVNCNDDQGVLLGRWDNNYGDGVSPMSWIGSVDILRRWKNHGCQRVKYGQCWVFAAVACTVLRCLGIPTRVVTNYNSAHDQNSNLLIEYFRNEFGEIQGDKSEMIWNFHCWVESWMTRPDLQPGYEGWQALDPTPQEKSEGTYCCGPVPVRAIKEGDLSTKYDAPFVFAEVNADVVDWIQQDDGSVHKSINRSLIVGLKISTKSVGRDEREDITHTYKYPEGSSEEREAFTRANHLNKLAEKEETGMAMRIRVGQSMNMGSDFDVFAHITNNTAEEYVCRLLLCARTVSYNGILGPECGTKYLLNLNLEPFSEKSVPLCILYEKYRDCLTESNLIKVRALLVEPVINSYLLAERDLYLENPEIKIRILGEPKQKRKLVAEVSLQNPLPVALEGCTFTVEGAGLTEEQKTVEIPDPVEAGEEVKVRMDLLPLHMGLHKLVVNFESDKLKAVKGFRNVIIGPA
Procedure: In situ transglutaminase assay. In situ transamidating activity measurement was conducted as described previously (Gundemir, S. and Johnson, G. V., PLoS ONE 4(7):e6123, 2009) with slight modifications. […] In a high protein binding 96-well plate (Falcon), 10 μg of protein was loaded in a total of 50 μL homogenization buffer and the plate was incubated at 4° C. overnight. The next day, 200 μL of blocking buffer (5% BSA, 0.01% Tween 20 in borate saline [100 mM boric acid, 20 mM Na-borate and 0.76 mM NaCl]) was added to each sample and the plate was incubated at 37° C. for 1 h. Each well was then rinsed 3 times with rinsing buffer (1% BSA, 0.01% Tween 20 in borate saline) and incubated with 1 μg/μL Horseradish peroxidase conjugated neutravidin (Pierce) in a total of 100 μL rinsing buffer at room temperature for 1 h. […] After 20 minutes, the reaction was stopped by addition of 50 μL of 1 M sulfuric acid and read at 493 nm wavelength.

TG2 [3] = molecular target: T1, TG2; experiment: In situ TG2 transamidase activity assay (fluorescein cadaverine incorporation), SCC-13 cells; assay type: cell-based; set-up: endogenous in cells; host or cells: SCC-13; conditions: for FC incorporation (TG2 transamidase activity): 20 μM 30 min, then A23187 90 min
Procedure: Insitu TG2 activity assay. Cells (40,000) were plated in 24-well attachment dishes in spheroid media and grown until 50% confluent. Fluorescein cadaverine (FC) was added in 2 mL of serum-free medium at a final concentration of 20 μM and incubated for 4 hours. The wells were washed twice with serum-free spheroid medium, and then 2 mL of fresh serum-free medium was added containing 0-20 μM NC9. After 30 min, the wells were supplemented with 10 μM A23187. Cells were incubated for an additional 90 min and then washed three times with Ca^++/Mg^++-free HBSS, fixed with formalin, and washed with phosphate-buffered saline and imaged to detect fluorescein.
In situ TG2 transamidase activity assay. Cells (40,000) were plated in 24-well attachment dishes in spheroid media and grown until 50% confluent. FC was added in 2 ml of serum-free medium at a final concentration of 20 μM and incubated for 4 h. […] After 30 min, the wells were supplemented with 10 NM A23187, a calcium ionophore.

Row | SMILES | neuronal viability / tolerability [1] | spheroid number, formation from single cells (SCC-13 cells; 10 or 20 μM single addition, 0-14 days, after day eight) | spheroid formation (cancer stem cell survival) (SCC-13 cells) | spheroid number, pre-formed spheroids (SCC-13 cells; spheroids grown for 8 days, then treated) | in situ transamidation activity of TG2 induced by ionomycin (TG2 [2]; U87, 1321N, U251, T98G cell lines) | ionomycin-activated in situ transamidating activity of TG2 (TG2 [2]) | FC incorporation (TG2 transamidase activity) (TG2 [3]) | TG2 transamidase activity (FC incorporation) (TG2 [3]; 20 μM NC9, calcium ionophore)
1 | C=CC(=O)NCCCC[C@H](NC(=O)OCc1ccccc1)C(=O)NCCOCCOCCNS(=O)(=O)c1cccc2c(N(C)C)cccc12 [NC9] | well tolerated up to 10 μM concentration | selectively declined | inhibited spheroid formation | reduced spheroid number | completely inhibited | inhibit ionomycin-activated transamidating activity of TG2 | drastically reduced | reduced
2 | C=CC(=O)NCCCC[C@H](NC(=O)OCc1ccccc1)C(=O)N1CCN(S(=O)(=O)c2cccc3c(N(C)C)cccc23)CC1 [VA4, (S)-benzyl(6-acrylamido-1-(4-((5-(dimethylamino)naphthalen-1-yl)sulfonyl)piperazin-1-yl)-1-oxohexan-2-yl)carbamate] | well tolerated up to 10 μM concentration | – | inhibited spheroid formation | – | – | inhibit ionomycin-activated transamidating activity of TG2 | drastically reduced | –
3 | C=CC(=O)NCCCC[C@H](NC(=O)OCc1ccccc1)C(=O)N1CCN(C(=O)c2cc3ccc(O)cc3oc2=O)CC1 [VA5, (S)-Benzyl(6-acrylamido-1-(4-(7-hydroxy-2-oxo-2H-chromene-3-carbonyl)piperazin-1-yl)-1-oxohexan-2-yl)carbamate] | well tolerated up to 10 μM concentration | – | inhibited spheroid formation | – | – | inhibit ionomycin-activated transamidating activity of TG2 | drastically reduced | –
